How the values were obtained:
[1] = target: hGYS1 enzyme (recombinant hGYS1/GN1 protein) (Homo sapiens (Human), UniProt P13807); assay: GYS1 coupled enzyme assay (PK/LDH); assay type: biochemical; details: hGYS1/GN1 50 nM, UDP-Glucose 0.8 mM, G6P 1 mM; geometric mean of at least 2 runs
[2] = target: hGYS2 enzyme (recombinant hGYS2/GN1 protein) (Homo sapiens (Human), UniProt P54840); assay: GYS2 coupled enzyme assay (PK/LDH); assay type: biochemical; details: geometric mean of at least 2 assay runs on separate days, read-out: Avg_IC50
Sequence of hGYS2 enzyme (recombinant hGYS2/GN1 protein) (P54840 whole entry): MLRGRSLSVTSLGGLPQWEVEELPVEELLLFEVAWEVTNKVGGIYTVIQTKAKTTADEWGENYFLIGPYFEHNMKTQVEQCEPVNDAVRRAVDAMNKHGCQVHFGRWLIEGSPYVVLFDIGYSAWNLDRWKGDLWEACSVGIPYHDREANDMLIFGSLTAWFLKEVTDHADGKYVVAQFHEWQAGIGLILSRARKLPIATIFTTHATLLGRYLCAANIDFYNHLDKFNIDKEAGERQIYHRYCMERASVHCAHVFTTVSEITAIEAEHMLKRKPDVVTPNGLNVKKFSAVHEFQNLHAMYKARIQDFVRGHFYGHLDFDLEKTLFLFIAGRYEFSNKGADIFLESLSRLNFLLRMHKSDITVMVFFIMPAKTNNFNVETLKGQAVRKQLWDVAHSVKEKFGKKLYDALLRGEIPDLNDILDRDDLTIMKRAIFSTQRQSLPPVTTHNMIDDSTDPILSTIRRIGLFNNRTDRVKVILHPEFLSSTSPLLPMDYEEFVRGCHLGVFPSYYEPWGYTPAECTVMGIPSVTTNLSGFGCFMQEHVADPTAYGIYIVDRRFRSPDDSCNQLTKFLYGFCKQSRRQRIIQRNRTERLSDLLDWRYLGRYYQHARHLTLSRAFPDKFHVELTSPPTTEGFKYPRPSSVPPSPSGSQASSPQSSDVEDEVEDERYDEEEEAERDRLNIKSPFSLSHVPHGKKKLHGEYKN
Sequence of hGYS2 enzyme (recombinant hGYS2/GN1 protein) (P46976 whole entry partner): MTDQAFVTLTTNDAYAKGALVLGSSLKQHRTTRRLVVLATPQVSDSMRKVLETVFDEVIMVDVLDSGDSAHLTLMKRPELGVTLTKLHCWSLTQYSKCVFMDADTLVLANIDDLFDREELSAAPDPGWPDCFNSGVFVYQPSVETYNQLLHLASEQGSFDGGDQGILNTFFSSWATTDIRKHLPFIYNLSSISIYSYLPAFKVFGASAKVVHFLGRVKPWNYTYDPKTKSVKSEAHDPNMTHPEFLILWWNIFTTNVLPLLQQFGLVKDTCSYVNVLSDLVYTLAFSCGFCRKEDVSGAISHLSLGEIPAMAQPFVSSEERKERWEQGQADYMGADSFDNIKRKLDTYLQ
Method in brief: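 IC50 came from Hill fits of duplicate percent inhibition, based on control-normalized slopes of 340 nm NADH decline read each minute for 10 min. The reaction held recombinant hGYS2/GN1 (200 nM) with glycogen, UDP-glucose, G6P and PEP, plus PK/LDH coupling at pH 7.5 and 2.5% DMSO.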

[3] = test system: hGYS1 enzyme / glycogen synthesis in HeLa cells; assay: GYS1 cell based assay (glycogen synthesis, Glucose-glo); design: species or system human; details: 24 h incubation, 20 mM glucose, geometric mean of at least 2 runs
Method in brief: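 HeLa cells starved 24 h in medium containing only 1× Glutamax were plated onto compound in medium with 20 mM glucose (1% DMSO final) for 24 h, 37 °C, 5% CO2. Acid lysates were Tris-quenched, glucoamylase-digested (pH 5.3, 1 h, 37 °C) and read by Glucose-glo luminescence. IC50 came from Hill fits, as geometric mean of ≥2 runs.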

Sequence of hGYS1 enzyme (recombinant hGYS1/GN1 protein) (P13807 whole entry): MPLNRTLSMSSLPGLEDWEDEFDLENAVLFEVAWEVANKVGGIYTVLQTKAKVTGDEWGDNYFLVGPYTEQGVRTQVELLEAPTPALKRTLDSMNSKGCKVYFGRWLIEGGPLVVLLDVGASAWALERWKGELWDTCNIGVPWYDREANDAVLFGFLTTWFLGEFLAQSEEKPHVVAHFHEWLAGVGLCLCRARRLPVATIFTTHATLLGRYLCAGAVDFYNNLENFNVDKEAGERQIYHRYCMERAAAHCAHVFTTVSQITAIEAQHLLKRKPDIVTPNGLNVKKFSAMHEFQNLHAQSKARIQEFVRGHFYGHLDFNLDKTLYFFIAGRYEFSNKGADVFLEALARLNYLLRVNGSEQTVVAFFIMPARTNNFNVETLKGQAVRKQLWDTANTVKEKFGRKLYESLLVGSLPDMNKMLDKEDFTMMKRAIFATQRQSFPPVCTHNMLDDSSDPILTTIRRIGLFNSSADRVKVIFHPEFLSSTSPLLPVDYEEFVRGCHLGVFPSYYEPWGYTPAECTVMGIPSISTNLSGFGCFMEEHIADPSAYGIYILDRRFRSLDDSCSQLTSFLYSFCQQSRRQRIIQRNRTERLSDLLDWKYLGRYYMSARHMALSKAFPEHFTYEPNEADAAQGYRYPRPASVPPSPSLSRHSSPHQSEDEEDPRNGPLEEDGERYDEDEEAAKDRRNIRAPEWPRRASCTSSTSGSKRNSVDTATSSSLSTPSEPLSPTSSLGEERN
Sequence of hGYS1 enzyme (recombinant hGYS1/GN1 protein) (P46976 whole entry partner): as the sequence (P46976 whole entry partner) above

Question: With `CC(C)c1ccc([C@@H](NC(=O)[C@@H]2C[C@@H](F)CN2C(=O)Cc2cccn3c(=O)[nH]nc23)c2ccccc2)cc1F` [Compound 379, (2S,4R)-4-fluoro-N-[(S)-[3-fluoro-4-(propan-2-yl)phenyl](phenyl)methyl]-1-(2-{3-oxo-2H,3H-[1,2,4]triazolo[4,3-a]pyridin-8-yl}acetyl)pyrrolidine-2-carboxamide] as the compound, how does the IC50 [1] read?
Answer: 8 nM

Question: And the IC50 [2]?
Answer: > 100000 nM

Question: What about the IC50 ([3]; Homo sapiens, HeLa, 24 h) of the same compound?
Answer: 190 nM

Question: Which IC50 [1] does the source give for `COCCN1CCN(C(=O)OCC(=O)N2C[C@H](F)C[C@H]2C(=O)N[C@@H](c2ccccc2)c2ccc(C3CC3)c(F)c2)CC1` [Compound 448, 2-[(2S,4R)-2-{[(S)-(4-cyclopropyl-3-fluorophenyl)(phenyl)methyl]carbamoyl}-4-fluoropyrrolidin-1-yl]-2-oxoethyl 4-(2-methoxyethyl)piperazine-1-carboxylate] here?
Answer: 71 nM

Question: What about the IC50 [2] of the same compound?
Answer: > 100000 nM

Question: And the IC50 ([3]; Homo sapiens, HeLa, 24 h)?
Answer: 1350 nM

Question: Which IC50 [1] does the source give for `O=C(N[C@@H](c1ccccc1)c1ccc(C2CC(F)(F)C2)c(F)n1)[C@@H]1C[C@@H](F)CN1C(=O)CNC(=O)N1CC(F)(F)C1` [Compound 512, (2S,4R)-1-{2-[(3,3-difluoroazetidine-1-carbonyl)amino]acetyl}-N-[(S)-[5-(3,3-difluorocyclobutyl)-6-fluoropyridin-2-yl](phenyl)methyl]-4-fluoropyrrolidine-2-carboxamide] here?
Answer: 15 nM

Question: And the IC50 [2]?
Answer: > 100000 nM

Question: What about the IC50 ([3]; Homo sapiens, HeLa, 24 h) of the same compound?
Answer: 290 nM

Question: How did the IC50 [1] turn out when `O=C(N[C@@H](c1ccccc1)c1ccc(C2CC2)c(F)c1)[C@@H]1C[C@@H](F)CN1C(=O)CN1C(=O)Cc2ccccc21` [Compound 454, (2S,4R)-N-[(S)-(4-cyclopropyl-3-fluorophenyl)(phenyl)methyl]-4-fluoro-1-[2-(2-oxo-2,3-dihydro-1H-indol-1-yl)acetyl]pyrrolidine-2-carboxamide] was run?
Answer: 72 nM

Question: And the IC50 [2]?
Answer: > 100000 nM

Question: And the IC50 ([3]; Homo sapiens, HeLa, 24 h)?
Answer: 1600 nM

Question: How did the IC50 [1] turn out when `CC(C(=O)N1C[C@H](F)C[C@H]1C(=O)N[C@@H](c1ccccc1)c1ccc(C2CC2)c(F)c1)n1cnc2ccccc21` (single isomer, unassigned) [Compound 809, (2S,4R)-1-[(2S) or (2R)-2-(1H-1,3-benzodiazol-1-yl)propanoyl]-N-[(S)-(4-cyclopropyl-3-fluorophenyl)(phenyl)methyl]-4-fluoropyrrolidine-2-carboxamide] was run?
Answer: 7 nM

Question: What about the IC50 [2] of the same compound?
Answer: > 100000 nM

Question: What about the IC50 [3] of the same compound?
Answer: 190 nM

Question: How did the IC50 [1] turn out when `CC(C)c1ccc([C@@H](NC(=O)[C@@H]2C[C@@H](F)CN2C(=O)[C@@H](C)NC(=O)N(C)C)c2ccccc2)nc1F` [Compound 406, (2S,4R)-1-[(2R)-2-[(dimethylcarbamoyl)amino]propanoyl]-4-fluoro-N-[(S)-[6-fluoro-5-(propan-2-yl)pyridin-2-yl](phenyl)methyl] pyrrolidine-2-carboxamide] was run?
Answer: 41 nM

Question: What about the IC50 [2] of the same compound?
Answer: > 100000 nM

Question: What about the IC50 ([3]; Homo sapiens, HeLa, 24 h) of the same compound?
Answer: 760 nM

Question: Which results are given for `Cc1nnn(CC(=O)N2C[C@H](F)C[C@H]2C(=O)NC(c2ccccc2)c2cc(C)c(C3CC3)c(F)c2)n1` (single isomer, unassigned) [Compound 682, (2S,4R)-N-[(S) or (R)-(4-cyclopropyl-3-fluoro-5-methylphenyl) (phenyl)methyl]-4-fluoro-1-[2-(5-methyl-2H-1,2,3,4-tetrazol-2-yl)acetyl]pyrrolidine-2-carboxamide]?
Answer: IC50 [1]: 116 nM; IC50 [2]: > 100000 nM; IC50 ([3]; Homo sapiens, HeLa, 24 h): 2090 nM

Question: Which results are given for `Cc1cnc(CC(=O)N2C[C@H](F)C[C@H]2C(=O)N[C@@H](c2ccccc2)c2ccc(C3CC(F)(F)C3)c(F)c2)o1` [Compound 550, (2S,4R)-N-[(S)-[4-(3,3-difluorocyclobutyl)-3-fluorophenyl](phenyl)methyl]-4-fluoro-1-[2-(5-methyl-1,3-oxazol-2-yl)acetyl]pyrrolidine-2-carboxamide]?
Answer: IC50 [1]: 42 nM; IC50 [2]: > 100000 nM; IC50 ([3]; Homo sapiens, HeLa, 24 h): 650 nM

Question: `CC(C)c1ccc([C@@H](NC(=O)[C@@H]2C[C@@H](F)CN2C(=O)Cc2nn(C)c(=O)o2)c2ccccc2)nc1` [Compound 266, (2S,4R)-4-fluoro-1-[2-(4-methyl-5-oxo-4,5-dihydro-1,3,4-oxadiazol-2-yl)acetyl]-N-[(S)-phenyl[5-(propan-2-yl)pyridin-2-yl]methyl]pyrrolidine-2-carboxamide] was tested. Which IC50 [1] did it give?
Answer: 89 nM

Question: And the IC50 [2]?
Answer: > 100000 nM

Question: And the IC50 ([3]; Homo sapiens, HeLa, 24 h)?
Answer: 1220 nM

Question: Which results are given for `O=C(N[C@@H](c1ccccc1)c1ccc(C2CC2)c(F)n1)[C@@H]1C[C@@H](F)CN1C(=O)Cn1ccc(C(F)F)n1` [Compound 729, (2S,4R)-N-[(S)-(5-cyclopropyl-6-fluoropyridin-2-yl)(phenyl)methyl]-1-{2-[3-(difluoromethyl)-1H-pyrazol-1-yl]acetyl}-4-fluoropyrrolidine-2-carboxamide]?
Answer: IC50 [1]: 39 nM; IC50 [2]: > 100000 nM; IC50 ([3]; Homo sapiens, HeLa, 24 h): 710 nM

Question: Which results are given for `CC(C)c1ccc([C@@H](NC(=O)[C@@H]2C[C@@H](F)CN2C(=O)Cc2[nH]nnc2C(F)(F)F)c2ccccc2)cc1F` [Compound 368, (2S,4R)-4-fluoro-N-[(S)-[3-fluoro-4-(propan-2-yl)phenyl](phenyl)methyl]-1-{2-[4-(trifluoromethyl)-1H-1,2,3-triazol-5-yl]acetyl}pyrrolidine-2-carboxamide]?
Answer: IC50 [1]: 5 nM; IC50 [2]: > 82300 nM; IC50 ([3]; Homo sapiens, HeLa, 24 h): 150 nM

Question: `O=C(N[C@@H](c1ccccc1)c1ccc(C2CC2)c(F)c1)[C@@H]1C[C@@H](F)CN1C(=O)Cc1n[nH]c2ccccc12` [Compound 458, (2S,4R)-N-[(S)-(4-cyclopropyl-3-fluorophenyl)(phenyl)methyl]-4-fluoro-1-[2-(1H-indazol-3-yl)acetyl]pyrrolidine-2-carboxamide] was tested. Which IC50 [1] did it give?
Answer: 71 nM

Question: And the IC50 [2]?
Answer: > 100000 nM

Question: And the IC50 ([3]; Homo sapiens, HeLa, 24 h)?
Answer: 1330 nM

Question: How did the IC50 [1] turn out when `CC(C)c1ccc([C@@H](NC(=O)[C@@H]2C[C@@H](F)CN2C(=O)Cc2cnn[nH]2)c2ccccc2)cc1Cl` [Compound 672, (2S,4R)-N-[(S)-[3-chloro-4-(propan-2-yl)phenyl](phenyl)methyl]-4-fluoro-1-[2-(1H-1,2,3-triazol-5-yl)acetyl]pyrrolidine-2-carboxamide] was run?
Answer: 82 nM

Question: And the IC50 [2]?
Answer: > 100000 nM

Question: What about the IC50 ([3]; Homo sapiens, HeLa, 24 h) of the same compound?
Answer: 1220 nM

Question: How did the IC50 [1] turn out when `CC(C)c1ccc([C@@H](NC(=O)[C@@H]2C[C@@H](F)CN2C(=O)Cc2nn(C)c(=O)o2)c2ccccc2)nc1F` [Compound 401, (2S,4R)-4-fluoro-N-[(S)-[6-fluoro-5-(propan-2-yl)pyridin-2-yl](phenyl)methyl]-1-[2-(4-methyl-5-oxo-4,5-dihydro-1,3,4-oxadiazol-2-yl)acetyl]pyrrolidine-2-carboxamide] was run?
Answer: 10 nM

Question: And the IC50 [2]?
Answer: > 100000 nM

Question: What about the IC50 ([3]; Homo sapiens, HeLa, 24 h) of the same compound?
Answer: 290 nM

Question: Which IC50 [1] does the source give for `CC(C)c1ccc([C@@H](NC(=O)[C@@H]2C[C@@H](F)CN2C(=O)Cn2cc(N3CCNCC3)nn2)c2ccccc2)cc1F` [Compound 375, (2S,4R)-4-fluoro-N-[(S)-[3-fluoro-4-(propan-2-yl)phenyl](phenyl)methyl]-1-{2-[4-(piperazin-1-yl)-1H-1,2,3-triazol-1-yl]acetyl}pyrrolidine-2-carboxamide] here?
Answer: 6 nM

Question: And the IC50 [2]?
Answer: > 77400 nM

Question: What about the IC50 ([3]; Homo sapiens, HeLa, 24 h) of the same compound?
Answer: 570 nM

Question: For `CCn1c(=O)ccn(CC(=O)N2C[C@H](F)C[C@H]2C(=O)N[C@@H](c2ccccc2)c2ccc(C3CC(F)(F)C3)c(F)n2)c1=O` [Compound 515, (2S,4R)-N-[(S)-[5-(3,3-difluorocyclobutyl)-6-fluoropyridin-2-yl](phenyl)methyl]-1-[2-(3-ethyl-2,4-dioxo-l,2,3,4-tetrahydropyrimidin-1-yl)acetyl]-4-fluoropyrrolidine-2-carboxamide], which IC50 [1] is on record?
Answer: 4 nM

Question: What about the IC50 [2] of the same compound?
Answer: > 100000 nM

Question: What about the IC50 ([3]; Homo sapiens, HeLa, 24 h) of the same compound?
Answer: 100 nM

Source: US11814367B2, “Inhibitors of glycogen synthase 1 (GYS1) and methods of use thereof” (Maze Therapeutics, Inc., priority 2021, dated 2023)
